{"source": "ChEMBL document CHEMBL1150186", "about": "“Chemical studies on Mexican plants used in traditional medicine, XV. Sesquiterpene evoninoate alkaloids from Hippocratea excelsa” (J Nat Prod, 1990)", "key": {"MCF7": {"system": "MCF7", "assay": "Cytotoxicity against human MCF7 cells", "format": "functional", "conditions": "read-out: ED50 (the source's name)"}, "[1]": {"assay": "Toxicity against brine shrimp", "format": "organism-based", "conditions": "artemia, in vivo"}, "[2]": {"assay": "Cytotoxicity against mouse 9PS cells", "format": "functional", "conditions": "read-out: ED50 (the source's name)"}, "HT-29": {"system": "HT-29", "assay": "Cytotoxicity against human HT-29 cells", "format": "functional", "conditions": "read-out: ED50 (the source's name)"}, "A549": {"system": "A549", "assay": "Cytotoxicity against human A549 cells", "format": "functional", "conditions": "read-out: ED50 (the source's name)"}}, "data": [{"smiles": "CC(=O)OC[C@]12[C@H](OC(C)=O)[C@H](OC(C)=O)C3C(OC(C)=O)[C@@]14O[C@@]3(C)COC(=O)c1cccnc1[C@@H](C)[C@H](C)C(=O)OC([C@H](OC(=O)c1ccc(=O)n(C)c1)[C@@H]2OC(=O)c1ccccc1)[C@]4(C)O", "note": "(stereo not given in full) [HIPPOCRATEINE]", "values": [{"measurement": "EC50", "setting": "MCF7", "value": "> 10", "unit": "µg/mL"}, {"measurement": "LC50", "setting": "[1]", "value": 212, "unit": "µg/mL"}, {"measurement": "EC50", "setting": "[2]", "value": 0.185, "unit": "µg/mL"}, {"measurement": "EC50", "setting": "HT-29", "value": "> 10", "unit": "µg/mL"}, {"measurement": "EC50", "setting": "A549", "value": "> 10", "unit": "µg/mL"}]}]}
